Source: patent US20230263816A1, “PHARMACEUTICAL COMPOSITIONS FOR DELIVERY OF REMDESIVIR BY INHALATION” (priority 2020, published 2023)
≈ marks a conversion by molar mass, not a printed value. Like-named read-outs stand apart in the source and are kept apart here.

Tests used:
SARS-CoV-2 = settings: Pruijssers et al., 2020, cited from earlier work
SAR-CoV-2 = settings: cited from earlier work
[1] = cited from earlier work
[2] = Solubility in simulated lung fluid (SLF); type: physicochemical; settings: for solubility in SLF: 25° C., 24 h
Procedure: The composition and preparation of simulated lung fluid (SLF) were adapted from Hassoun's study (Hassoun et al., 2018). SLF contained dipalmitoylphosphotidylcholine (DPPC), cholesterol, albumin, transferrin, ascorbic acid and Hank's balanced salt solution (HBSS). The SLF was prepared by two steps including a preparation of liposomal dispersion and freeze drying as described in Hassoun et al. (Hassoun et al., 2018). In the first step, a liposomal dispersion was prepared by mixing 2.12 mL of 25 mg/mL DPPC and 5 μL of 200 mg/mL cholesterol in chloroform. Then, the solution was dried using an evaporator until the dry film was obtained. The thin film of lipid was dispersed by adding 8 mL of 57 mg/mL bovine serum albumin in water, 1 mL of 15 mg/mL transferrin in water, and 88.5 μL of 10 mM ascorbate solution. The mixture was sonicated until it fully dispersed. The dispersion was adjusted to 10 mL by adding 1M HBSS). The dispersion was frozen at −20° C. for 6 h, and primary dried in the lyophilizer at −40° C. for 30 h and ramp to 25° C. for 12 h and finally secondary dried at 25° C. for 20 h. The lyophilized SLF was stored at 2-8° C. and reconstituted with purified water upon solubility and dissolution testing.
The excess amount of powder was added in SLF until precipitation occurred. Then the samples were shaken on the orbital shaker at 250 rpm and 25° C. for 24 h. The samples were collected and centrifuged at 13,000 rpm for 15 min. The supernatants were collected and then diluted with DMSO/acetonitrile (10/90). The samples were centrifuged again at 13,000 rpm for 15 min to separate proteins in SLF. The supernatants were collected and analyzed by HPLC.

[3] = rats; cited from earlier work

N#C[C@@]1(c2ccc3c(N)ncnn23)O[C@H](CO)[C@@H](O)[C@H]1O [GS-441524]
EC50 (SARS-CoV-2; Calu3 2B4 cells, read-out: EC50): 620 nM
EC50 (SARS-CoV-2; Calu-3 2B4 cells): 0.1806 µg/mL
EC50 (SAR-CoV-2; human airway epithelial (HAE), Agostini et al., 2018): 0.05243 µg/mL
EC50 (SAR-CoV-2; read-out: EC50): 180 nM
half-life ([1]; human, in vivo, iv): approximately 24.5 h

CCC(CC)COC(=O)[C@H](C)N[P@](=O)(OC[C@H]1O[C@@](C#N)(c2ccc3c(N)ncnn23)[C@H](O)[C@@H]1O)Oc1ccccc1 [amorphous remdesivir, remdesivir]
increase in solubility compared to crystalline neat remdesivir [2]: 20 fold
solubility of amorphous versus crystalline remdesivir [2]: about 20 times
solubility in SLF [2]: 590 ± 10 µg/mL (≈ 979 µM)

CCC(CC)COC(=O)[C@H](C)N[P@](=O)(OC[C@H]1O[C@@](C#N)(c2ccc3c(N)ncnn23)[C@H](O)[C@@H]1O)Oc1ccccc1 [crystalline remdesivir, remdesivir]
solubility in SLF [2]: 30 ± 1 µg/mL (≈ 49.8 µM)

CCC(CC)COC(=O)[C@H](C)N[P@](=O)(OC[C@H]1O[C@@](C#N)(c2ccc3c(N)ncnn23)[C@H](O)[C@@H]1O)Oc1ccccc1 [remdesivir]
half-life of remdesivir in plasma [3]: less than 0.9 min
half-life ([1]; humans, multiple IV administrations once a day): about 1 h
